From patent publication US10364256B2 (GlaxoSmithKline Intellectual Property Development Limited, priority 2015, dated 2019)

Legend:
[1] = biological target: T1, Keap1 Kelch domain (321-609) / TAMRA-labeled 16mer NRF2 peptide (ETGE motif) (Homo sapiens, UniProt Q14145); test: NRF2-Keap1 FP Assay (Keap1 Kelch fluorescence polarization); type: binding; conditions: 20 nM Keap1 (321-609), 8 nM Tamra labeled peptide
T1 construct: the Kelch domain (321-609) of Keap1 is used
Procedure, shortened: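 Compound dilutions (3-fold) were incubated 1 hr at room temperature with 20 nM Keap1 Kelch (321-609) and 8 nM TAMRA-labeled ETGE 16mer peptide. Buffer was 50 mM Tris pH 8.0, 100 mM NaCl, 5 mM MgCl2, 1 mM DTT, 2 mM CHAPS, 0.005% BSA. Fluorescence polarization (mP) was normalized to controls and fitted with a four-parameter equation to give pIC50.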

[2] = biological target: T2, full length Keap1 protein / full length NRF2 protein (Homo sapiens, UniProt Q14145); test: NRF2-Keap1 TR-FRET Assay; type: binding; conditions: 25 nM Keap1-FlagHis and 50 nM biotin-NRF2 added
T2 construct: full length NRF2 protein and full length Keap1 protein (Keap1 exists a dimer) are used; His
T2 sequence (Q14145 whole entry): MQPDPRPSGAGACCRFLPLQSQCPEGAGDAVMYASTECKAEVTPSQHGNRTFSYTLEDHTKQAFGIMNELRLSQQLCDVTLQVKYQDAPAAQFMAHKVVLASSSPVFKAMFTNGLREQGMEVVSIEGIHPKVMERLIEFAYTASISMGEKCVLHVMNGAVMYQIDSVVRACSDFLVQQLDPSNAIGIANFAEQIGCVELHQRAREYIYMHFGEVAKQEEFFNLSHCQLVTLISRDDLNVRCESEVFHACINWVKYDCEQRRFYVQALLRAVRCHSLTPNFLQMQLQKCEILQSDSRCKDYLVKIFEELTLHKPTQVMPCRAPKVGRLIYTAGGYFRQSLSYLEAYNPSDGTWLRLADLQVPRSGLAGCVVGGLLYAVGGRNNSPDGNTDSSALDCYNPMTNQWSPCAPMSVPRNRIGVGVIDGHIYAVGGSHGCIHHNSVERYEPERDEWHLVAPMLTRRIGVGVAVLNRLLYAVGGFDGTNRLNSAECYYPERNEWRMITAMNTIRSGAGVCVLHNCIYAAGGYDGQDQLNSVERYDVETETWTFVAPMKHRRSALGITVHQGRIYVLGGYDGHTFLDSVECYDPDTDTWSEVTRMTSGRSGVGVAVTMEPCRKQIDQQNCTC
Procedure, shortened: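 Full-length Keap1-FlagHis preincubated with compound 2.25 h at 37 °C, then biotin-NRF2 added for 1.25 h at 4 °C, in Tris pH 8.0 with MgCl2, NaCl, BSA, DTT, CHAPS. TR-FRET 665/615 nm ratio normalised to with- and without-protein 1% DMSO controls; pIC50 from four-parameter fit.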

T1 sequence (Q14145 321-609): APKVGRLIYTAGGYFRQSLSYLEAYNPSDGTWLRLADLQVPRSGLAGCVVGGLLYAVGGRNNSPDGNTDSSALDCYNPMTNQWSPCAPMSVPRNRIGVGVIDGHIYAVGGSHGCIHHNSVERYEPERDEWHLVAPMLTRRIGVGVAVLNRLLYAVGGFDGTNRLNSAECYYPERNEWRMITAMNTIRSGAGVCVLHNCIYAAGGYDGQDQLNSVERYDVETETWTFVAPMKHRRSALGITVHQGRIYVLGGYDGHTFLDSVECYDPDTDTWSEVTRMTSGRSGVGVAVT

| IC50 [1] [nM] | IC50 [2] [nM] | Structure (SMILES) |
| --- | --- | --- |
| 10 to 100 | 100 to 1000 | COC(c1cccc(-c2cccc(-n3ncc(C(=O)O)c3C3CC3c3cn(C)nn3)c2)c1)C1CCCCC1 (centres unmarked) [Example 244, 1-(3′-(Cyclohexyl(methoxy)methyl)-[1,1′-biphenyl]-3-yl)-5-(2-(1-methyl-1H-1,2,3-triazol-4-yl)cyclopropyl)-1H-pyrazole-4-carboxylic acid] |
| 10 to 100 | 10 to 100 | CCC[C@@H]1CCCCN1C(=O)c1cccc(-c2cccc(-n3ncc(C(=O)O)c3C3CC3c3cn(C)nn3)c2)c1F (stereo partly drawn) [Example 57, 1-(2′-Fluoro-3′-((R)-2-propylpiperidine-1-carbonyl)-[1,1′-biphenyl]-3-yl)-5-(2-(1-methyl-1H-1,2,3-triazol-4-yl)cyclopropyl)-1H-pyrazole-4-carboxylic Acid] |
| 10 to 100 | 100 to 1000 | CC(Oc1cccc(-c2cccc(-n3ncc(C(=O)O)c3C3CC3c3cn(C)nn3)c2)c1)C1CCCC1 (centres unmarked) [Example 228, 1-(3′-(1-Cyclopentylethoxy)-[1,1′-biphenyl]-3-yl)-5-(2-(1-methyl-1H-1,2,3-triazol-4-yl)cyclopropyl)-1H-pyrazole-4-carboxylic acid] |
| 10 to 100 | 10 to 100 | CCC[C@@H]1CCCCN1C(=O)c1cccc(-c2cc(Cl)cc(-n3ncc(C(=O)O)c3C3CC3c3cn(C)nn3)c2)c1 (stereo partly drawn) [Example 160, 1-(5-Chloro-3′-((R)-2-propylpiperidine-1-carbonyl)-[1,1′-biphenyl]-3-yl)-5-(2-(1-methyl-1H-1,2,3-triazol-4-yl)cyclopropyl)-1H-pyrazole-4-carboxylic Acid Compound with 2,2,2-trifluoroacetic Acid (1:1)] |
| 100 to 1000 | 100 to 1000 | Cn1cc(C2CC2c2c(C(=O)O)cnn2-c2cccc(-c3cccc(CCC4CCCCC4)c3)c2)nn1 (centres unmarked) [Example 233, 1-(3′-(2-Cyclohexylethyl)-[1,1′-biphenyl]-3-yl)-5-(2-(1-methyl-1H-1,2,3-triazol-4-yl)cyclopropyl)-1H-pyrazole-4-carboxylic Acid] |
| 10 to 100 | 100 to 1000 | O=C(O)c1cnn(-c2cccc(-c3cccc(C(=O)N(CC4CCCC4)CC4CC4)c3F)c2)c1C1CC1 [Example 14, 1-(3-{3-[(Cyclopentylmethyl)(cyclopropylmethyl)carbamoyl]-2-fluorophenyl}phenyl)-5-cyclopropyl-1H-pyrazole-4-carboxylic Acid] |
| 10 to 100 | 100 to 1000 | Cn1cc(C2CC2c2c(C(=O)O)cnn2-c2cccc(-c3cccc(OC4CCCCC4)c3)c2)nn1 (centres unmarked) [Example 229] |
| 10 to 100 | 100 to 1000 | Cn1cc(C2CC2c2c(C(=O)O)cnn2-c2cccc(-c3cccc(C(=O)C4CCCCC4)c3)c2)nn1 (centres unmarked) [Example 243, 1-(3′-(Cyclohexanecarbonyl)-[1,1′-biphenyl]-3-yl)-5-(2-(1-methyl-1H-1,2,3-triazol-4-yl)cyclopropyl)-1H-pyrazole-4-carboxylic Acid] |
| 10 to 100 | 10 to 100 | CCC[C@@H]1CCCCN1C(=O)c1cccc(-c2cccc(-n3ncc(C(=O)O)c3C3CC3c3cn(C)nn3)n2)c1 (stereo partly drawn) [Example 196, 5-(2-(1-Methyl-1H-1,2,3-triazol-4-yl)cyclopropyl)-1-(6-(3-((R)-2-propylpiperidine-1-carbonyl)phenyl)pyridin-2-yl)-1H-pyrazole-4-carboxylic Acid] |
| 1000 to 10000 | 10000 to 100000 | CC(CC1CCCCC1)Oc1cccc(-c2cccc(-n3ncc(C(=O)O)c3C3CC3)c2)c1 (centres unmarked) [Example 161, 1-(3′-((1-Cyclohexylpropan-2-yl)oxy)-[1,1′-biphenyl]-3-yl)-5-cyclopropyl-1H-pyrazole-4-carboxylic Acid] |
| 100 to 1000 | 100 to 1000 | Cn1cc(C2CC2c2c(C(=O)O)cnn2-c2cccc(-c3cccc(OCc4cccc(F)c4)c3)c2)nn1 (centres unmarked) [Example 224, 1-(3′-((3-Fluorobenzyl)oxy)-[1,1′-biphenyl]-3-yl)-5-(2-(1-methyl-1H-1,2,3-triazol-4-yl)cyclopropyl)-1H-pyrazole-4-carboxylic acid] |
| 10 to 100 | 10 to 100 | Cn1cc(C2CC2c2c(C(=O)O)cnn2-c2cccc(-c3cccc(-n4ncc5c4C(C)(C)CC5)c3)c2)nn1 (centres unmarked) [Example 212, 1-(3′-(6,6-Dimethyl-5,6-dihydrocyclopenta[c]pyrazol-1(4H)-yl)-[1,1′-biphenyl]-3-yl)-5-(2-(1-methyl-1H-1,2,3-triazol-4-yl)cyclopropyl)-1H-pyrazole-4-carboxylic Acid] |
| 100 to 1000 | 100 to 1000 | COC1CCCCC1COc1cccc(-c2cccc(-n3ncc(C(=O)O)c3[C@H]3C[C@@H]3c3cn(C)nn3)c2)c1 (mixture of isomers) [Example 177, 1-(3′-((2-Methoxycyclohexyl)methoxy)-[1,1′-biphenyl]-3-yl)-5-((1,2-trans)-2-(1-methyl-1H-1,2,3-triazol-4-yl)cyclopropyl)-1H-pyrazole-4-carboxylic acid] |
| 10 to 100 | 10 to 100 | CC(Oc1cccc(-c2cccc(-n3ncc(C(=O)O)c3[C@H]3C[C@@H]3c3cn(C)nn3)c2)c1)C1CCCCC1 (stereo partly drawn) [Example 165, 1-(3′-(1-Cyclohexylethoxy)-[1,1′-biphenyl]-3-yl)-5-((1S,2S)-2-(1-methyl-1H-1,2,3-triazol-4-yl)cyclopropyl)-1H-pyrazole-4-carboxylic acid] |
| 100 to 1000 | 1000 to 10000 | O=C(O)c1cnn(-c2cccc(-c3cccc(-n4ncc5c4CCC5)c3)c2)c1C1CC1 [Example 61, 5-Cyclopropyl-1-(3′-(5,6-dihydrocyclopenta[c]pyrazol-1(4H)-yl)-[1,1′-biphenyl]-3-yl)-1H-pyrazole-4-carboxylic Acid] |
| 10 to 100 | 100 to 1000 | Cn1cc(C2CC2c2c(C(=O)O)cnn2-c2cccc(-c3cccc(C(=O)CC4CCCCC4)c3)c2)nn1 (centres unmarked) [Example 215, 1-(3′-(2-Cyclohexylacetyl)-[1,1′-biphenyl]-3-yl)-5-(2-(1-methyl-1H-1,2,3-triazol-4-yl)cyclopropyl)-1H-pyrazole-4-carboxylic Acid] |
| 100 to 1000 | 1000 to 10000 | CCCCC1CCc2cnn(-c3cccc(-c4cccc(-n5ncc(C(=O)O)c5C5CC5)c4)c3)c21 (centres unmarked) [Example 206, 1-(3′-(6-Butyl-5,6-dihydrocyclopenta[c]pyrazol-1(4H)-yl)-[1,1′-biphenyl]-3-yl)-5-cyclopropyl-1H-pyrazole-4-carboxylic Acid] |
| 100 to 1000 | 100 to 1000 | Cn1cc(C2CC2c2c(C(=O)O)cnn2-c2cccc(-c3cccc(OCc4ccccc4)c3)c2)nn1 (centres unmarked) [Example 221] |
| 10 to 100 | 100 to 1000 | CCCC1CCCCN1C(=O)c1cccc(-c2cccc(-n3ncc(C(=O)O)c3C3CC3)c2)c1F (centres unmarked) [Example 17, 5-Cyclopropyl-1-{3-[2-fluoro-3-(2-propylpiperidine-1-carbonyl)phenyl]phenyl}-1H-pyrazole-4-carboxylic Acid] |
| 100 to 1000 | 100 to 1000 | Cn1cc([C@@H]2C[C@H]2c2c(C(=O)O)cnn2-c2cccc(-c3cccc(OCC4CCCC(C(F)(F)F)C4)c3)c2)nn1 (mixture of isomers) [Example 147, 5-((1,2-trans)-2-(1-Methyl-1H-1,2,3-triazol-4-yl)cyclopropyl)-1-(3′-((3-(trifluoromethyl)cyclohexyl)methoxy)-[1,1′-biphenyl]-3-yl)-1H-pyrazole-4-carboxylic acid] |
| 10 to 100 | 10 to 100 | Cn1cc([C@H]2C[C@@H]2c2c(C(=O)O)cnn2-c2cccc(-c3cccc(-n4ncc5c4C(C)(C)CC5)c3)c2)nn1 (stereo in doubt) [Example 208, 1-(3′-(6,6-Dimethyl-5,6-dihydrocyclopenta[c]pyrazol-1(4H)-yl)-[1,1′-biphenyl]-3-yl)-5-((1S,2S)-2-(1-methyl-1H-1,2,3-triazol-4-yl)cyclopropyl)-1H-pyrazole-4-carboxylic Acid] |
| 10 to 100 | 100 to 1000 | C[C@@H]1CCC[C@H](C)N1C(=O)c1cccc(-c2cccc(-n3ncc(C(=O)O)c3C3CC3)c2)c1F [Example 21, 5-Cyclopropyl-1-(3-{3-[(2R,6S)-2,6-dimethylpiperidine-1-carbonyl]-2-fluorophenyl}phenyl)-1H-pyrazole-4-carboxylic Acid] |
| 100 to 1000 | 100 to 1000 | CC(Oc1cccc(-c2cccc(-n3ncc(C(=O)O)c3[C@H]3C[C@@H]3c3cn(C)nn3)c2)c1)c1cccc(-c2ccccc2)c1 (mixture of isomers) [Example 239, 1-(3′-(1-([1,1′-Biphenyl]-3-yl)ethoxy)-[1,1′-biphenyl]-3-yl)-5-((1,2-trans)-2-(1-methyl-1H-1,2,3-triazol-4-yl)cyclopropyl)-1H-pyrazole-4-carboxylic Acid] |

| Structure (SMILES) | IC50 [1] [nM] | IC50 [2] [nM] |
| --- | --- | --- |
| Cn1cc(C2CC2c2c(C(=O)O)cnn2-c2cccc(-c3cccc(OCC4CCN(C(=O)OC(C)(C)C)CC4)c3)c2)nn1 (centres unmarked) [Example 167, 1-(3′-((1-(tert-Butoxycarbonyl)piperidin-4-yl)methoxy)-[1,1′-biphenyl]-3-yl)-5-(2-(1-methyl-1H-1,2,3-triazol-4-yl)cyclopropyl)-1H-pyrazole-4-carboxylic acid] | 10 to 100 | 100 to 1000 |
| Cn1cc(C2CC2c2c(C(=O)O)cnn2-c2cccc(-c3cccc(OCCC(C)(C)C)c3)c2)nn1 (centres unmarked) [Example 225, 1-(3′-(3,3-Dimethylbutoxy)-[1,1′-biphenyl]-3-yl)-5-(2-(1-methyl-1H-1,2,3-triazol-4-yl)cyclopropyl)-1H-pyrazole-4-carboxylic acid] | 10 to 100 | 100 to 1000 |
